In ChEMBL document CHEMBL5131462, “5'-Phosphonate modified oligoadenylates as potent activators of human RNase L” (Bioorg Med Chem, 2022):

What was measured:
[1] = organism: Homo sapiens; assay: Activation of human RNase L using [CY5]-r(C11-UUC7)- [BHQ2] as substrate assessed as cleavage of fluorescent substrate by measuring increase in fluorescence at 100 nM incubated for 30 mins by FRET assay relative to control; conditions: filed as activator
[2] = Activation of human RNase L using [CY5]-r(C11-UUC7)- [BHQ2] as substrate assessed as cleavage of fluorescent substrate by measuring increase in fluorescence incubated for 30 mins by FRET assay
[3] = organism: Homo sapiens; assay: Activation of human RNase L assessed as reduction in Vmax using varying concentrations of [CY5]-r(C11-UUC7)- [BHQ2] as substrate incubated for 30 mins by FRET assay relative to control; set-up: scale not given: the % may be the effect or the level left; conditions: filed as activator

SMILES | Activity [1] | EC50 [2] | Activity [3]
Nc1ncnc2c1ncn2[C@@H]1O[C@H](COP(=O)(O)O[C@@H]2[C@H](O)[C@@H](COP(=O)(O)O[C@@H]3[C@H](O)[C@@H](CNC(=O)P(=O)(O)O)O[C@H]3n3cnc4c(N)ncnc43)O[C@H]2n2cnc3c(N)ncnc32)[C@@H](O)[C@H]1O | > 75% | 20.9 nM | 
Nc1ncnc2c1ncn2[C@@H]1O[C@H](COP(=O)(O)O[C@@H]2[C@H](O)[C@@H](COP(=O)(O)O[C@@H]3[C@H](O)[C@@H](COCP(=O)(O)O)O[C@H]3n3cnc4c(N)ncnc43)O[C@H]2n2cnc3c(N)ncnc32)[C@@H](O)[C@H]1O | > 75% | 46.1 nM | 33%
Nc1ncnc2c1ncn2[C@@H]1O[C@H](COP(=O)(O)O[C@@H]2[C@H](O)[C@@H](COP(=O)(O)O[C@@H]3[C@H](O)[C@@H](COP(=O)(O)O)O[C@H]3n3cnc4c(N)ncnc43)O[C@H]2n2cnc3c(N)ncnc32)[C@@H](O)[C@H]1O |  | 15.3 nM | 
C[C@]1(OCP(=O)(O)O)O[C@@H](n2cnc3c(N)ncnc32)[C@H](OP(=O)(O)OC[C@H]2O[C@@H](n3cnc4c(N)ncnc43)[C@H](OP(=O)(O)OC[C@H]3O[C@@H](n4cnc5c(N)ncnc54)[C@H](O)[C@@H]3O)[C@@H]2O)[C@@H]1O | > 75% | 35.7 nM | 
Nc1ncnc2c1ncn2[C@@H]1O[C@H](COP(=O)(O)O[C@@H]2[C@H](O)[C@@H](COP(=O)(O)O[C@@H]3[C@H](O)[C@@H](OCP(=O)(O)O)O[C@H]3n3cnc4c(N)ncnc43)O[C@H]2n2cnc3c(N)ncnc32)[C@@H](O)[C@H]1O | > 75% | 18.9 nM | 
Nc1ncnc2c1ncn2[C@@H]1O[C@H](COP(=O)(O)O[C@@H]2[C@H](O)[C@@H](COP(=O)(O)O[C@@H]3[C@H](O)[C@@H](CSCP(=O)(O)O)O[C@H]3n3cnc4c(N)ncnc43)O[C@H]2n2cnc3c(N)ncnc32)[C@@H](O)[C@H]1O | > 75% | 33.8 nM | 33%
Nc1ncnc2c1ncn2[C@@H]1O[C@H](COP(=O)(O)O[C@@H]2[C@H](O)[C@@H](COP(=O)(O)O[C@@H]3[C@H](O)[C@@H](COCC(O)P(=O)(O)O)O[C@H]3n3cnc4c(N)ncnc43)O[C@H]2n2cnc3c(N)ncnc32)[C@@H](O)[C@H]1O (stereo partly specified) | > 75% | 55.2 nM | 33%
